Reference: PubChem BioAssay AID2060610 (Molecular Pharmacology Branch, DTP, NCI, 2025)
Where “and” joins values, the source holds several entries; their conditions need not be identical. Identical values can stand only once.

Test system: 616215-338-R-J1-PDC complex spheroids, viability % test/control
Assay: Anticancer human tumor 616215-338-R-J1-PDC patient-derived colon adenocarcinoma cell line growth inhibition [CLK]
Conditions: for viability, T/C: stronger effect = lower value
Summary of the method: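 Patient-derived tumor cells grown as complex spheroids with HUVEC endothelial cells and mesenchymal stem cells, treated with drug combinations. Concentrations descend in half-log steps from near clinical Cmax, or from 10 microM if Cmax unknown.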

[1] = curve of first compound, second compound 0.0316 µM
[2] = curve of first compound, second compound 0.1 µM
[3] = curve of first compound, second compound 0.316 µM
[4] = curve of first compound, second compound 1 µM
[5] = curve of first compound, second compound 3.16 µM
[6] = curve of first compound, second compound 10 µM
[7] = second compound 0.0316 µM, first compound 0.0316 µM
[8] = second compound 0.0316 µM, first compound 0.1 µM
[9] = second compound 0.0316 µM, first compound 0.316 µM
[10] = second compound 0.0316 µM, first compound 1 µM
[11] = second compound 0.0316 µM, first compound 3.16 µM
[12] = second compound 0.0316 µM, first compound 10 µM
[13] = second compound 0.1 µM, first compound 0.0316 µM
[14] = second compound 0.1 µM, first compound 0.1 µM
[15] = second compound 0.1 µM, first compound 0.316 µM
[16] = second compound 0.1 µM, first compound 1 µM
[17] = second compound 0.1 µM, first compound 3.16 µM
[18] = second compound 0.1 µM, first compound 10 µM
[19] = second compound 0.316 µM, first compound 0.0316 µM
[20] = second compound 0.316 µM, first compound 0.1 µM
[21] = second compound 0.316 µM, first compound 0.316 µM
[22] = second compound 0.316 µM, first compound 1 µM
[23] = second compound 0.316 µM, first compound 3.16 µM
[24] = second compound 0.316 µM, first compound 10 µM
[25] = second compound 1 µM, first compound 0.0316 µM
[26] = second compound 1 µM, first compound 0.1 µM
[27] = second compound 1 µM, first compound 0.316 µM
[28] = second compound 1 µM, first compound 1 µM
[29] = second compound 1 µM, first compound 3.16 µM
[30] = second compound 1 µM, first compound 10 µM
[31] = second compound 3.16 µM, first compound 0.0316 µM
[32] = second compound 3.16 µM, first compound 0.1 µM
[33] = second compound 3.16 µM, first compound 0.316 µM
[34] = second compound 3.16 µM, first compound 1 µM
[35] = second compound 3.16 µM, first compound 3.16 µM
[36] = second compound 3.16 µM, first compound 10 µM
[37] = second compound 10 µM, first compound 0.0316 µM
[38] = second compound 10 µM, first compound 0.1 µM
[39] = second compound 10 µM, first compound 0.316 µM
[40] = second compound 10 µM, first compound 1 µM
[41] = second compound 10 µM, first compound 3.16 µM
[42] = second compound 10 µM, first compound 10 µM
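Further: spheroids exposed to agents for 7 days.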
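Wherever viability, T/C is given: 100% = DMSO vehicle wells.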

CC(=O)O[C@H]1C(=O)[C@@]2(C)[C@H]([C@H](OC(=O)c3ccccc3)[C@]3(O)C[C@H](OC(=O)[C@H](O)[C@@H](NC(=O)c4ccccc4)c4ccccc4)C(C)=C1C3(C)C)[C@]1(OC(C)=O)CO[C@@H]1C[C@@H]2O + CNC(=O)c1ccc(Nc2nc(OC3CCCC3)c3c(-c4ccc5nc(C)oc5c4)c[nH]c3n2)c(OC)c1
IC50 [1]: < 31.6 nM
IC50 [2]: < 31.6 nM
IC50 [3]: < 31.6 nM
IC50 [4]: < 31.6 nM
IC50 [5]: < 31.6 nM
IC50 [6]: < 31.6 nM
viability, T/C [7]: 35%
viability, T/C [8]: 27.8%
viability, T/C [9]: 23.3%
viability, T/C [10]: 27%
viability, T/C [11]: 30.8%
viability, T/C [12]: 36.2%
viability, T/C [13]: 39.9%
viability, T/C [14]: 37.7%
viability, T/C [15]: 35.2%
viability, T/C [16]: 38.9%
viability, T/C [17]: 41%
viability, T/C [18]: 44.2%
viability, T/C [19]: 34.8%
viability, T/C [20]: 40%
viability, T/C [21]: 32%
viability, T/C [22]: 38.3%
viability, T/C [23]: 58.5%
viability, T/C [24]: 46%
viability, T/C [25]: 45.6%
viability, T/C [26]: 53.2%
viability, T/C [27]: 56.6%
viability, T/C [28]: 60.6%
viability, T/C [29]: 59.5%
viability, T/C [30]: 58.1%
viability, T/C [31]: 34.3%
viability, T/C [32]: 51.5%
viability, T/C [33]: 63.4%
viability, T/C [34]: 63%
viability, T/C [35]: 72.1%
viability, T/C [36]: 63.9%
viability, T/C [37]: 39.5%
viability, T/C [38]: 43.2%
viability, T/C [39]: 70.7%
viability, T/C [40]: 75%
viability, T/C [41]: 62.7%
viability, T/C [42]: 62%

CC(CO)NC(=O)c1cc(-c2ccc(Cl)cc2)nn(-c2cnn(C)c2)c1=O (stereo not given) + CN1CCN(c2cc(C(=O)Nc3cc4cc(-c5cnn(C)c5)ccc4cn3)ccn2)CC1
IC50 [1]: > 10000 nM
IC50 [2]: > 10000 nM
IC50 [3]: < 31.6 nM
IC50 [4]: < 31.6 nM
IC50 [5]: < 31.6 nM
IC50 [6]: < 31.6 nM
viability, T/C [7]: 104%
viability, T/C [8]: 89.5%
viability, T/C [9]: 91.5%
viability, T/C [10]: 91.6%
viability, T/C [11]: 93%
viability, T/C [12]: 100%
viability, T/C [13]: 94.7%
viability, T/C [14]: 108%
viability, T/C [15]: 90.6%
viability, T/C [16]: 93.6%
viability, T/C [17]: 97.3%
viability, T/C [18]: 85.7%
viability, T/C [19]: 31.3%
viability, T/C [20]: 41.5%
viability, T/C [21]: 26.3%
viability, T/C [22]: 27.7%
viability, T/C [23]: 33.1%
viability, T/C [24]: 32.4%
viability, T/C [25]: 0.18%
viability, T/C [26]: 0.19%
viability, T/C [27]: 0.23%
viability, T/C [28]: 0.14%
viability, T/C [29]: 0.57%
viability, T/C [30]: 1.49%
viability, T/C [31]: 0.15%
viability, T/C [32]: 0.42%
viability, T/C [33]: 0.16%
viability, T/C [34]: 1.94%
viability, T/C [35]: 2.32%
viability, T/C [36]: 0.14%
viability, T/C [37]: 1.31%
viability, T/C [38]: 0.25%
viability, T/C [39]: 0.22%
viability, T/C [40]: 0.24%
viability, T/C [41]: 1.28%
viability, T/C [42]: 0.23%

COc1ccc([C@@H](O)c2cc(-c3ncnc4cc(N5CCOCC5)ccc34)c(F)cc2Cl)nn1
viability, T/C (compound 0.0316 µM): 102% and 93.5%
viability, T/C (compound 0.1 µM): 106% and 104%
viability, T/C (compound 0.316 µM): 111% and 108%
viability, T/C (compound 1 µM): 107% and 99.3%
viability, T/C (compound 3.16 µM): 112% and 118%
viability, T/C (compound 10 µM): 77.8% and 78.4%
IC50 (curve of compound): > 10000 nM

CC(Nc1ccc2c(c1)OCCn1cc(N3C(=O)OCC3C(F)F)nc1-2)C(N)=O (stereo not given)
viability, T/C (compound 0.0316 µM): 89.4% and 107%
viability, T/C (compound 0.1 µM): 99.5% and 103%
viability, T/C (compound 0.316 µM): 105% and 108%
viability, T/C (compound 1 µM): 101% and 100%
viability, T/C (compound 3.16 µM): 99.9% and 110%
viability, T/C (compound 10 µM): 90.6% and 100%
IC50 (curve of compound): > 10000 nM

COc1ccc([C@@H](O)c2cc(-c3ncnc4cc(N5CCOCC5)ccc34)c(F)cc2Cl)nn1 + CN1CCN(c2cc(C(=O)Nc3cc4cc(-c5cnn(C)c5)ccc4cn3)ccn2)CC1
IC50 [1]: > 10000 nM
IC50 [2]: 9460 nM
IC50 [3]: < 31.6 nM
IC50 [4]: < 31.6 nM
IC50 [5]: < 31.6 nM
IC50 [6]: < 31.6 nM
viability, T/C [7]: 105%
viability, T/C [8]: 106%
viability, T/C [9]: 105%
viability, T/C [10]: 109%
viability, T/C [11]: 111%
viability, T/C [12]: 67.7%
viability, T/C [13]: 122%
viability, T/C [14]: 107%
viability, T/C [15]: 104%
viability, T/C [16]: 103%
viability, T/C [17]: 88.4%
viability, T/C [18]: 47.2%
viability, T/C [19]: 25.2%
viability, T/C [20]: 30.6%
viability, T/C [21]: 25.9%
viability, T/C [22]: 19.8%
viability, T/C [23]: 17.9%
viability, T/C [24]: 7.77%
viability, T/C [25]: 0.11%
viability, T/C [26]: 0.15%
viability, T/C [27]: 1.72%
viability, T/C [28]: 0.1%
viability, T/C [29]: 0.59%
viability, T/C [30]: 0.08%
viability, T/C [31]: 0.09%
viability, T/C [32]: 0.13%
viability, T/C [33]: 0.15%
viability, T/C [34]: 0.1%
viability, T/C [35]: 0.14%
viability, T/C [36]: 0.12%
viability, T/C [37]: 0.11%
viability, T/C [38]: 0.13%
viability, T/C [39]: 0.18%
viability, T/C [40]: 0.18%
viability, T/C [41]: 1.74%
viability, T/C [42]: 0.19%
